Data on eight compounds can be found in US7595327B2, “Beta-sulfonamide hydroxamic acid inhibitors of tace/matrix metalloproteinase” (priority 2005, dated 2009).

Assay [1] concerns the target T1, TACE (catalytic domain of the recombinant TACE protein) (Homo sapiens, UniProt P78536).
T1 construct: The catalytic domain of the recombinant TACE protein was expressed and purified; made in house
The assay can be described thus: TACE FRET assay using TACE Cat. It is filed as biochemical. Particulars: FRET, pro-TNF-α substrate peptide; read-out: TACE IC50. The essentials:
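Recombinant TACE catalytic domain (1 ug/ml) pre-incubated 10 min at room temperature with inhibitor in 50 mM Tris-HCl pH 7.4, 25 mM NaCl, 4% glycerol, 0.005% Brij 35; Abz/Dpa pro-TNF-α peptide substrate added, fluorescence (Ex 320/Em 420) followed 10 min; IC50 from initial rates by Hill fit.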

For a further assay, the target named is MMP-13 (Homo sapiens, UniProt P45452). The assay can be described thus: In-vitro fluorescence assay of MMP-13 activity. Type of assay: biochemical. Here is the method:
See Knight, C. […] […].
The method was essentially the same as for the determination of MMP-1 activity, described above, except that the final concentration of purified MMP in the assay was 0.5 nM, prepared by diluting with the assay buffer.

For another assay, the target named is T2, recombinant human MMP-2 (Homo sapiens, UniProt P08253).
T2 sequence (P08253 110-660): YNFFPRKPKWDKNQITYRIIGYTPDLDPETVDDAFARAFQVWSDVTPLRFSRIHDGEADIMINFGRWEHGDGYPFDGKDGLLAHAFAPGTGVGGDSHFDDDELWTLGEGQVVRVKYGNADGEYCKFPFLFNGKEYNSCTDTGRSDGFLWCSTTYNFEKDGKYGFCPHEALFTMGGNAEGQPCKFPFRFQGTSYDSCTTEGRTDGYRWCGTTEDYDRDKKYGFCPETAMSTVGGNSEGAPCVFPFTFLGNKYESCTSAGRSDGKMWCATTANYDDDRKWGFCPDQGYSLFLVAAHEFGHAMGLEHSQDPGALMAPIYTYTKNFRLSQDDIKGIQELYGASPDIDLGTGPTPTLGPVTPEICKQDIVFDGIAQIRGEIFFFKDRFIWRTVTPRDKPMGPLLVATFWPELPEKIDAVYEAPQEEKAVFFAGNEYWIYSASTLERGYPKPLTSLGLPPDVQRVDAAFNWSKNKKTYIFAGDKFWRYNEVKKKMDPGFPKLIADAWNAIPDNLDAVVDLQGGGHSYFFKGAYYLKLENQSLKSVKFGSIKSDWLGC
The assay can be described thus: In-vitro fluorescence assay of MMP-2 activity. Type of assay: biochemical.

The target in assay [2] is T3, recombinant human catalytic domain of MMP-1 (Homo sapiens, UniProt P03956).
T3 construct: The source of enzyme in the assay was the recombinant human catalytic domain of MMP-1
T3 sequence (P03956 100-269 limits assumed): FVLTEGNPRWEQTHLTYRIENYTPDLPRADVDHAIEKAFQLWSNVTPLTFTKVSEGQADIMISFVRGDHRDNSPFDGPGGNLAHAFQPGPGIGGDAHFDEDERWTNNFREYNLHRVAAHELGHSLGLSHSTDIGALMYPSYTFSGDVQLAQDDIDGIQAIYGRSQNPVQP
The assay can be described thus: In-vitro fluorescence assay of MMP-1 activity. It is filed as biochemical.
Method: (§1) A continuous assay was used in which the substrate is a synthetic peptide containing a fluorescent group (7-methoxycoumarin; Mca) that is quenched by energy transfer to a 2,4-dinitrophenyl group. […] The substrate used was Mca-PQGL-(3-[2,4-dinitrophenyl]-L-2,3-diaminopropionyl)-AR-OH (denoted as Wammp-5, custom synthesized by AnaSpec, Inc.). The assay buffer consisted of 50 mM Hepes (pH 7.4), 100 mM NaCl, 5 mM CaCI2, and 0.005% Brij-35. Each well of black polystyrene 96-well plates contained a 200 μL reaction mixture consisting of assay buffer, purified MMP (final concentration of 25 ng/ml, prepared by diluting with the assay buffer), and varied concentrations of inhibitor (prepared by serially diluting a given inhibitor in DMSO in 96-well polypropylene plate). […] The enzymatic reactions were initiated by adding the substrate to a final concentration of 20 μM, and mixing 10 times with a pipette. The final DMSO concentration in the assay was 6.0%.
(§2) Plots of the inhibitor concentration vs. the percent inhibition were fit to the following equation: y=(a−d)/[1+(x/c)^b]+d, a general sigmoidal curve with Hill slope, a to d. x is the inhibitor concentration under test. y is the percent inhibition. a is the limiting response as x approaches zero. As x increases without bound, y tends toward its limit d. c is the inflection point (IC50) for the curve. That is, y is halfway between the lower and upper asymptotes when x=c. b is the slope factor or Hill coefficient.

The test system of assay [3] is TNF-α secretion in Raw 264.7 cells. The assay can be described thus: Cell-based assay for inhibition of TNF-α secretion in Raw cells. The following applies: Mus musculus, RAW264.7, LPS 100 ng/ml, 4 hr. The essentials:
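Confluent Raw 264.7 cells were seeded overnight, refed, and pre-incubated 1 hr with compound (0.2% final DMSO), then stimulated with LPS at 100 ng/ml final for 4 hr at 37° C. Supernatant TNF-α measured by ELISA; % inhibition and IC50 by curve fitting.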

Assay [4] deals with LPS-induced TNF-α secretion in human whole blood. The assay can be described thus: Human whole blood assay for LPS-induced TNF-α secretion. The following applies: LPS 100 ng/ml, read-out: TNF Secretion HWB IC50. Type of assay: cell-based. The method, boiled down:
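Fresh blood from healthy volunteers pre-incubated 1 h at 37° C with compound (final DMSO <0.2%), then stimulated with 100 ng/ml LPS for 4 h or overnight at 37° C with rotation. Supernatant TNF-α measured by ELISA; percent inhibition and IC50 derived by curve fitting.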

Assay [5] deals with T4, recombinant human catalytic domain of MMP-14 (Homo sapiens, UniProt P50281).
T4 construct: 20 kDa; purchased Chemicon International, Inc. CC1041
The assay can be described thus: In-vitro fluorescence assay of MMP-14 activity. Type of assay: biochemical. Here is the method:
The results were analyzed as described for MMP-13 activity, above.

Like-named read-outs stand apart in the source and are kept apart here. Bounds are passed on as bounds.

T1 sequence (P78536 223-474 limits assumed): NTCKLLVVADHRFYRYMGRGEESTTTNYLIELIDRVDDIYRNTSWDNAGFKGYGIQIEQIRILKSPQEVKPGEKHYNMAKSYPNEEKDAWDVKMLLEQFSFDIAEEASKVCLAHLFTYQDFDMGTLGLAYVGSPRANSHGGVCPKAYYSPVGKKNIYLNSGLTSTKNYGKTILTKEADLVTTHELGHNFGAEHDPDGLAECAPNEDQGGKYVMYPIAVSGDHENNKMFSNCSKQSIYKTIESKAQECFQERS
Method for recombinant human MMP-2: as §1, §2

A word on the IC50: it is the concentration needed to halve the response being measured. Turning to `Cc1cc(COc2ccc(S(=O)(=O)N[C@@H]3CN(C=O)CCC3C(=O)NO)cc2)c2ccccc2n1` (mixture of isomers) [Example 34, 1-Formyl-3-[4-(2-methyl-quinolin-4-ylmethoxy)-benzenesulfonylamino]-piperidine-4-carboxylic acid hydroxyamide], the half-maximal inhibitory concentration (IC50) was 1 nM in assay [1]; > 16700 nM at MMP-13; > 16700 nM at recombinant human MMP-2; > 16700 nM in assay [2]; 21 nM in assay [3]; 500 nM in assay [4] (Homo sapiens).

With `CC(=O)N1CCC(C(=O)NO)C(NS(=O)(=O)c2ccc(OCc3cc(C)nc4ccccc34)cc2)C1` (mixture of isomers) [Example 36, 1-Acetyl-3-[4-(2-methyl-quinolin-4-ylmethoxy)-benzenesulfonylamino]-piperidine-4-carboxylic acid hydroxyamide], the concentration for half-maximal inhibition (IC50) in assay [1] is 1.3 nM; at MMP-13, > 16700 nM; at recombinant human MMP-2, > 16700 nM; in assay [2], > 16700 nM; in assay [3], 202 nM; in assay [4] (Homo sapiens) it was 1000 nM.

`Cc1cc(COc2ccc(S(=O)(=O)N(C)[C@@H]3[C@H]4CC[C@H](C4)[C@@H]3C(=O)NO)cc2)c2ccccc2n1` (racemic) [Example 1, exo-N-Hydroxy-3-[methyl({4-[(2-methylquinolin-4-yl)methoxy]phenyl}sulfonyl)amino]bicyclo[2.2.1]heptane-2-carboxamide]: the IC50 is 2 nM in assay [1]; 6180 nM on recombinant human MMP-2; > 16700 nM in assay [5]; 18 nM in assay [3]; 3000 nM in assay [4] (Homo sapiens).

Turning to `Cc1cc(COc2ccc(S(=O)(=O)N(C)[C@H]3[C@@H](C(=O)NO)[C@@H]4CC[C@H]3O4)cc2)c2ccccc2n1` (relative stereo) [Example 3, exo-N-Hydroxy-3-[methyl({4-[(2-methylquinolin-4-yl)methoxy]phenyl}sulfonyl)amino]-7-oxabicyclo[2.2.1]heptane-2-carboxamide], the IC50 in assay [1] is 1.1 nM; on MMP-13, 3310 nM; on recombinant human MMP-2 it was 4120 nM; in assay [5], > 16700 nM; in assay [2] it was > 16700 nM; in assay [3], 10 nM. In addition, in assay [4] (Homo sapiens), the IC50 was 2200 nM.

As for `Cc1cc(COc2ccc(S(=O)(=O)N[C@@H]3[C@H]4CC[C@H](C4)[C@@H]3C(=O)NO)cc2)c2ccccc2n1` (relative stereo) [Example 4, exo-N-Hydroxy-3-[({4-[(2-methylquinolin-4-yl)methoxy]phenyl}sulfonyl)amino]bicyclo[2.2.1]heptane-2-carboxamide], the half-inhibitory concentration (IC50) in assay [1] is < 0.6 nM; on MMP-13 it was 6380 nM; on recombinant human MMP-2, > 16700 nM; in assay [5], > 16700 nM; in assay [2] it was > 16700 nM; in assay [3] it was 18 nM. Moreover, the half-maximal inhibitory concentration (IC50) in assay [4] (Homo sapiens) stood at 1600 nM.

For the compound `Cc1cc(COc2ccc(S(=O)(=O)N(C)C3C4CCC(C4)C3C(=O)NO)cc2)c2ccccc2n1` (single isomer, unassigned) [Example 1a, exo-N-hydroxy-3-[methyl({4-[(2-methylquinolin-4-yl)methoxy]phenyl}sulfonyl)amino]bicyclo[2.2.1]heptane-2-carboxamide], the 50% inhibitory concentration (IC50) in assay [1] was 1.3 nM; against MMP-13, > 16700 nM; at recombinant human MMP-2 it was 4580 nM; in assay [5] it was > 16700 nM; in assay [2], > 16700 nM; in assay [4] it was 2800 nM.

For the compound `Cc1cc(COc2ccc(S(=O)(=O)N(C)C3C4CCC(C4)C3C(=O)NO)cc2)c2ccccc2n1` (single isomer, unassigned) [Example 1b, exo-N-hydroxy-3-[methyl({4-[(2-methylquinolin-4-yl)methoxy]phenyl}sulfonyl)amino]bicyclo[2.2.1]heptane-2-carboxamide], the concentration for half-maximal inhibition (IC50) in assay [1] was 43 nM; against MMP-13, > 16700 nM; at recombinant human MMP-2, > 16700 nM; in assay [5] it was > 16700 nM; in assay [2], > 16700 nM; in assay [3], 250 nM. In assay [4], the IC50 was determined as 14000 nM.

For `Cc1cc(COc2ccc(S(=O)(=O)N[C@@H]3CCNC[C@]3(O)C(=O)NO)cc2)c2ccccc2n1` [Example 59, (3R,4R)-N,3-dihydroxy-4-[({4-[(2-methylquinolin-4-yl)methoxy]phenyl}sulfonyl)amino]piperidine-3-carboxamide], the IC50 was 109 nM in assay [1]; > 10000 nM against MMP-13; > 10000 nM at recombinant human MMP-2; > 1000 nM in assay [3]; 49000 nM in assay [4] (Homo sapiens).
